Measurements reported in ChEMBL document CHEMBL1914379, “Challenges of drug discovery in novel target space. The discovery and evaluation of PF-3893787: a novel histamine H4 receptor antagonist” (Bioorg Med Chem Lett, 2011).
Calls of active or inactive are those of the source. The calls are words filed in the database; no cut-off is given here.

Legend:
Histamine H4 receptor [1] = target: T1, Histamine H4 receptor (Homo sapiens, UniProt Q9H3N8); assay: Antagonist activity at full length human H4R expressed in HEK293 cells assessed as inhibition of forskolin-induced cAMP responsive element-beta-lactamase activity at 15 uM; format: functional, cell-based
T1 sequence (Q9H3N8 whole entry): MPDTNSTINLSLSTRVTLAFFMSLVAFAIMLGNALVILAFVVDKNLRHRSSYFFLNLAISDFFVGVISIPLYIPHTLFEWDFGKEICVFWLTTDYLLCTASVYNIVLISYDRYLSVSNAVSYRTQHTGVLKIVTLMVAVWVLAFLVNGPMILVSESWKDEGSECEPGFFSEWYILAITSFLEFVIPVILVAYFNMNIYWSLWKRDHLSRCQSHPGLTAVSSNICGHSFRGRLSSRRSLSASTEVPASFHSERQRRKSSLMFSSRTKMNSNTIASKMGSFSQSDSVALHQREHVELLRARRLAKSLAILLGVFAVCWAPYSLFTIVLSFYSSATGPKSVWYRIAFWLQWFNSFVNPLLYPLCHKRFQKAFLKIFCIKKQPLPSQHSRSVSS

Rattus norvegicus [2] = assay: Toxicity in rat assessed as mortality at high dose, po for 7 days; format: organism-based; settings: in vivo, 168 h
[3] = Metabolic stability in rat liver microsomes; format: ADME, Microsome; settings: read-out: Stability
Histamine H4 receptor [4] = target: T1, Histamine H4 receptor; assay: Displacement of [3H]-histamine from full length human H4R expressed in HEK293 cells; format: cell-based
Histamine H4 receptor [5] = target: T1, Histamine H4 receptor; assay: Antagonist activity at full length human H4R expressed in HEK293 cells assessed as reversal of forskolin-induced cAMP production by CRE-beta-lactamase reporter gene assay; format: functional, cell-based
[6] = Metabolic stability in human liver microsomes; format: ADME, Microsome; settings: read-out: Stability
[7] = Clearance in rat at 1 mg/kg, iv and 1 mg/kg, po; format: ADME, organism-based; settings: in vivo
[8] = Volume of distribution in rat at 1 mg/kg, iv and 1 mg/kg, po; format: ADME, organism-based; settings: in vivo
[9] = Half life in rat at 1 mg/kg, iv and 1 mg/kg, po; format: ADME, organism-based; settings: in vivo
[10] = Oral bioavailability in rat at 1 mg/kg; format: ADME, organism-based; settings: in vivo
Rattus norvegicus [11] = assay: Toxicity in po dosed rat assessed as lymphoid depletion from spleen for 4 days; format: organism-based; settings: in vivo, 96 h
Rattus norvegicus [12] = assay: Toxicity in po dosed rat assessed as lymphoid depletion from thymus for 4 days; format: organism-based; settings: in vivo, 96 h
Rattus norvegicus [13] = assay: Toxicity in po dosed rat assessed as lymphoid depletion from gut for 4 days; format: organism-based; settings: in vivo, 96 h
Rattus norvegicus [14] = assay: Toxicity in po dosed rat assessed as decrease in reticulocyte counts for 4 days; format: organism-based; settings: in vivo, 96 h
Rattus norvegicus [15] = assay: Toxicity in po dosed rat assessed as decrease in erythropoiesis for 4 days; format: organism-based, Erythrocyte; settings: in vivo, 96 h
Rattus norvegicus [16] = assay: Induction of pro-inflammatory response in rat dosed orally for 4 days; format: functional, organism-based
HEK-293T [17] = assay: Inverse agonist activity at macaque H4R expressed in HEK293T cells assessed as reversal of forskolin-induced cAMP production by CRE-beta-lactamase reporter gene assay; format: functional, cell-based; settings: Macaca mulatta
HEK-293T [18] = assay: Antagonist activity at dog H4R expressed in HEK293T cells assessed as reversal of forskolin-induced cAMP production by CRE-beta-lactamase reporter gene assay; format: functional, cell-based; settings: Canis lupus familiaris
[19] = target: Histamine H4 receptor (Rattus norvegicus) (UniProt Q91ZY1); assay: Partial agonist activity at rat H4R expressed in HEK293T cells assessed as reversal of forskolin-induced cAMP production by CRE-beta-lactamase reporter gene assay; format: functional, cell-based; settings: HEK-293T
Sequence of Histamine H4 receptor (Rattus norvegicus) (Q91ZY1 whole entry): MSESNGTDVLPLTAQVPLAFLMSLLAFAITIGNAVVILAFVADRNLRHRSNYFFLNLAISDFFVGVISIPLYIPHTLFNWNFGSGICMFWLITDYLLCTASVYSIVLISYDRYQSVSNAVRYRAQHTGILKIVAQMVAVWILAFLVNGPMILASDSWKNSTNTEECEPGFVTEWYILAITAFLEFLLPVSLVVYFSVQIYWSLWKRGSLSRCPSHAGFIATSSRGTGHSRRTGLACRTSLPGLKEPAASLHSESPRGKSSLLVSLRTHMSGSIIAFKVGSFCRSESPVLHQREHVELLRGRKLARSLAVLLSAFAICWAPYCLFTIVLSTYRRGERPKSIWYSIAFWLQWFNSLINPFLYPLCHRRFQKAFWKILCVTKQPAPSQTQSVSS

[20] = Lipophilicity, log D of the compound; format: physicochemical; settings: octanol/water
[21] = Blood clearance in dog at 1 mg/kg, iv and 10 mg/kg, po; format: ADME, organism-based, Canis lupus familiaris
[22] = Volume of distribution in dog blood at 1 mg/kg, iv and 10 mg/kg, po; format: ADME, organism-based, Canis lupus familiaris
[23] = Half life in dog at 1 mg/kg, iv and 10 mg/kg, po; format: ADME, organism-based, Canis lupus familiaris; settings: in vivo
[24] = Oral bioavailability in dog at 10 mg/kg; format: ADME, organism-based, Canis lupus familiaris; settings: in vivo
[25] = Blood clearance in rat at 1 mg/kg, iv and 5 mg/kg, po; format: ADME, organism-based
[26] = Volume of distribution in rat blood at 1 mg/kg, iv and 5 mg/kg, po; format: ADME, organism-based
[27] = Half life in rat at 1 mg/kg, iv and 5 mg/kg, po; format: ADME, organism-based; settings: in vivo
[28] = Oral bioavailability in rat at 5 mg/kg; format: ADME, organism-based; settings: in vivo
[29] = Plasma protein binding in rat at 1 mg/kg, iv and 5 mg/kg, po; format: ADME, organism-based; settings: read-out: PPB (converted)
Plasma = assay: Plasma protein binding in dog at 1 mg/kg, iv and 10 mg/kg, po; format: ADME, organism-based, Canis lupus familiaris; settings: in vivo
[30] = Plasma protein binding in human; format: ADME, cell-free; settings: read-out: PPB (converted)
[31] = Ratio of drug level in blood to plasma in rat at 1 mg/kg, iv and 5 mg/kg, po; format: ADME, organism-based
[32] = Ratio of drug level in blood to plasma in dog at 1 mg/kg, iv and 10 mg/kg, po; format: ADME, organism-based, Canis lupus familiaris
[33] = Ratio of drug level in blood to plasma in human; format: ADME; settings: blood and plasma
Histamine H4 receptor [34] = target: T1, Histamine H4 receptor; assay: Antagonist activity at H4R in human eosinophils assessed as inhibition of histamine-induced CD11b upregulation; format: functional
Histamine H4 receptor [35] = target: T1, Histamine H4 receptor; assay: Antagonist activity at H4R in human eosinophils assessed as inhibition of histamine-induced actin polymerisation; format: functional
Histamine H4 receptor [36] = target: T1, Histamine H4 receptor; assay: Displacement of [3H]-histamine from human H4R expressed in HEK293T cells; format: cell-based, HEK-293T
[37] = Displacement of [3H]-histamine from macaque H4R expressed in HEK293T cells; format: cell-based, Macaca mulatta; settings: hek-293t
[38] = Displacement of [3H]-histamine from dog H4R expressed in HEK293T cells; format: cell-based, Canis lupus familiaris; settings: hek-293t
Histamine H4 receptor [39] = target: T2, Histamine H4 receptor (Cavia porcellus, UniProt Q91ZY3); assay: Displacement of [3H]-histamine from guinea pig H4R expressed in HEK293T cells; format: cell-based, HEK-293T
T2 sequence (Q91ZY3 whole entry): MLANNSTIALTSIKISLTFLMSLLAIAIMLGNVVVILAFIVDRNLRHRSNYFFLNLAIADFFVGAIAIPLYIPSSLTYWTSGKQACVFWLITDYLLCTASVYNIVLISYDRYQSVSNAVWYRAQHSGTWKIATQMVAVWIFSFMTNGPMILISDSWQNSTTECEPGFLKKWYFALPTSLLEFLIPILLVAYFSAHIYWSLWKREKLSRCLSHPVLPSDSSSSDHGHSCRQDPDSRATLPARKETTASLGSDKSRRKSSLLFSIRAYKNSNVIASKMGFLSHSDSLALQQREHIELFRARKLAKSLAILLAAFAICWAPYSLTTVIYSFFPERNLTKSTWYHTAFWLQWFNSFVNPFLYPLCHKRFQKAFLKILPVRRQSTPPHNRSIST

Histamine H4 receptor [40] = target: Histamine H4 receptor (Rattus norvegicus, UniProt Q91ZY1); assay: Displacement of [3H]-histamine from rat H4R expressed in HEK293T cells; format: cell-based, HEK-293T
Sequence of Histamine H4 receptor (Rattus norvegicus, UniProt Q91ZY1) (Q91ZY1 whole entry): as the sequence (Q91ZY1 whole entry) above

Histamine H4 receptor [41] = target: T3, Histamine H4 receptor (Mus musculus, UniProt Q91ZY2); assay: Displacement of [3H]-histamine from mouse H4R expressed in HEK293T cells; format: cell-based, HEK-293T
T3 sequence (Q91ZY2 whole entry): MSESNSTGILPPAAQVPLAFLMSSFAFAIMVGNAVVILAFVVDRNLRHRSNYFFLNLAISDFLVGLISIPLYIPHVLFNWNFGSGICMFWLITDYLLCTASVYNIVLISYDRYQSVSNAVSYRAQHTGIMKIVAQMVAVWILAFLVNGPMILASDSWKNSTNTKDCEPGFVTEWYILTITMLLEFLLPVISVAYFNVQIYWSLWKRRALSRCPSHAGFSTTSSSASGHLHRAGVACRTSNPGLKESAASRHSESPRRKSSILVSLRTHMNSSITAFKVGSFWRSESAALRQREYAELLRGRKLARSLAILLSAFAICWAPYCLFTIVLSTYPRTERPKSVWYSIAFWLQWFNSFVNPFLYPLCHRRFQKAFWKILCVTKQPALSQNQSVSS

## CC(C)(C)CCNc1cc(NC2CCN(Cc3ccc(CO)o3)C2)ncn1 (racemic)
Histamine H4 receptor [1]
  inhibition: 73%

## CNC1CN(c2cc(N)nc(NCC3CC3)n2)C1
Rattus norvegicus [2]
  Activity: Toxic
[3]
  microsomal CLint: < 8.5 µL/min/mg
Histamine H4 receptor [4]
  Ki: 9070 nM
Histamine H4 receptor [5]
  Ki: > 2000 nM

## CN1CCN(c2cc(NCCC(C)(C)C)ncn2)CC1
Histamine H4 receptor [5]
  Ki: 92 nM

## CN1C[C@@H]2CN(C(=O)c3nc4cc(F)c(F)cc4[nH]3)C[C@@H]2C1
[6]
  microsomal CLint: < 7 µL/min/mg
[3]
  microsomal CLint: 10 µL/min/mg
Histamine H4 receptor [4]
  Ki: 128 nM
Histamine H4 receptor [5]
  Ki: 53 nM
[7]
  clearance: 59 mL/min/kg
[8]
  Vd: 4.1 L/kg
[9]
  half-life: 0.8 h
[10]
  bioavailability: 50%
Rattus norvegicus [11]
  Activity: Dose-dependent effect
Rattus norvegicus [12]
  Activity: Dose-dependent effect
Rattus norvegicus [13]
  Activity: Dose-dependent effect
Rattus norvegicus [14]
  Activity: Toxic
Rattus norvegicus [15]
  Activity: Toxic
Rattus norvegicus [16]
  Activity: Active

## CN1C[C@@H]2CN(C(=N)c3nc4cc(F)c(F)cc4[nH]3)C[C@@H]2C1
[6]
  microsomal CLint: < 7 µL/min/mg
[3]
  microsomal CLint: 10 µL/min/mg
Histamine H4 receptor [4]
  Ki: 10 nM
Histamine H4 receptor [5]
  Ki: 10 nM
[7]
  clearance: 31 mL/min/kg
[8]
  Vd: 31 L/kg
[9]
  half-life: 12 h
[10]
  bioavailability: 20%
Rattus norvegicus [11]
  Activity: Dose-dependent effect
Rattus norvegicus [12]
  Activity: Dose-dependent effect
Rattus norvegicus [13]
  Activity: Dose-dependent effect
Rattus norvegicus [14]
  Activity: Toxic
Rattus norvegicus [15]
  Activity: Toxic
Rattus norvegicus [16]
  Activity: Active

## CN[C@@H]1CCN(c2cc(NCC3CC3)nc(N)n2)C1 [ADRIFORANT]
HEK-293T [17]
  Activity: Active
HEK-293T [18]
  Activity: Active
[19]
  Activity: Active
[6]
  microsomal CLint: < 7 µL/min/mg
[3]
  microsomal CLint: < 8.5 µL/min/mg
Histamine H4 receptor [4]
  Ki: 2.4 nM
Histamine H4 receptor [5]
  Ki: 1.56 nM
[20]
  logD: -0.1
[21]
  clearance: 7 mL/min/kg
[22]
  Vd: 14 L/kg
[23]
  half-life: 24 h
[24]
  bioavailability: 39%
[25]
  clearance: 29 mL/min/kg
[26]
  Vd: 18 L/kg
[27]
  half-life: 7 h
[28]
  bioavailability: 62%
[29]
  fraction unbound: 0.81
Plasma
  PPB: 0%
[30]
  fraction unbound: 0.84
[31]
  blood plasma ratio: 2
[32]
  blood plasma ratio: 1
[33]
  blood plasma ratio: 3
Histamine H4 receptor [34]
  IC50: 4.9 nM
Histamine H4 receptor [35]
  IC50: 1.3 nM
Histamine H4 receptor [36]
  Ki: 6.17 nM
[37]
  pKi: 7.81
[38]
  pKi: 5.79
Histamine H4 receptor [39]
  Ki: 123 nM
Histamine H4 receptor [40]
  Ki: 12.3 nM
Histamine H4 receptor [41]
  Ki: 20.9 nM
